These results are taken from patent US20240252493A1, “Apelin Receptor Modulators for Treating Age-Related Muscle Conditions” (BIOAGE LABS, INC., priority 2021, published 2024).

Entries after “also recorded” stand apart in the source; their conditions may differ.

Test [1] concerns 25-HMC. Briefly: Early proliferation marker expression (RT-PCR), younger donor cells. It counts as cell-based, human. As for the experimental part:
Immortalized human cells from male donors (25-HMC) […] (79-HMC) are grown from the proliferation stage until they become 80% confluent, differentiate, and become myotubes. […] Early proliferation markers (Pax7, Myf5, MyoD, and MyoG were assessed via RT-PCR (FIG. 8D to 8K)

Test [2] deals with apelin receptor. Briefly: Apelin receptor levels after one month of BGE-105 in immobilized aged mice. It counts as in vivo. The following applies: after one month of treatment at 50 mg/kg BID.
Protocol: After 3 weeks of treatment following casting, mice were euthanized 1 hour after the final ZT1 dose, and tissues isolated, weighed, then flash frozen in liquid nitrogen for subsequent western blot analysis.
Test [3] has as its system rats. Particulars: cited from earlier work.
In test [4] the test system is pAMPK. Nature of the test: Western blot of pAMPK in heart after oral BGE-105. It counts as in vivo. The following applies: mice, oral 45 mg/kg, vs vehicle. The source says:
Administration of an apelin receptor agonist can induce the phosphorylation and activation of AMPK in heart tissue. Tissue samples were lysed using T-PER tissue protein extraction reagent (Thermo Fisher Scientific #78510) containing EDTA and protease/phosphatase inhibitors on the Omni Bead Ruptor 12 Homogenizer. Total protein was extracted then quantified using Pierce™ BCA Protein Assay Kit. Loaded equal amounts of total protein per lane on a 4-12% SDS-PAGE gel and transferred to PVDF membrane. Membranes were blocked and blotted with anti-phospho-AMPKα-Thr172 (Cell Signaling Technology, CST #2535), total-AMPKα (CST #2532), anti-phospho-Akt-SeR^473 (CST #4060), total-Akt (CST #4685), anti-phospho-ERK-1/2-Thr202/Tyr204 of Erk1 and Thr185/Tyr187 of Erk2 (CST #4370), total-ERK-1/2 (CST #9107) or anti-APLNR receptor (abcam, ab214369) antibodies. Band intensities were normalized to loading control anti-β-Actin (CST #3700) or anti-GAPDH (abcam, ab181602) antibodies. Immunoreactive proteins were detected using SuperSignal™ West Femto Substrate (Thermo Fisher Scientific #34095) and quantified by Image Lab™ software (Bio-Rad Laboratories, Inc.).
Apelin can induce the phosphorylation of Akt in the soleus muscle and improve glucose homeostasis. […]
Background: A western blot detects proteins with antibodies after separation by electrophoresis.

Test [5] concerns tibialis of aged mice. Nature of the test: CTX-induced muscle injury: histology (cross-sectional area, centrally nucleated fibers). In kind it is in vivo. As for the experimental part:
Impairment of muscle regeneration can contribute to age-related muscle weakness. This is particularly true in aged individuals who engage in physical activity. Exercise-induced muscle hypertrophy is linked to the capacity of muscle stem cells to be activated and promote regeneration.
Mice were i.p injected with buprenorphine (Centravet, 0.1 mg/kg) 30 minutes before injury and the day after. The day of the injury, mice were anesthetized with isoflurane inhalation and hindlimbs were shaved. Then, 10 μM of cardiotoxin (CTX, Latoxan, #L8102) was injected through two injections of 25 μl into the left tibialis muscle and two injections of 50 μl into the left gastrocnemius muscle, using a 22-gauge needle (Hamilton). Mice were euthanized 3 and 7 days after injury by cervical dislocation, muscles (PBS- and CTX-injected) were cut in two parts, one being snap frozen into liquid nitrogen for total RNA extraction and the other part being embedded into OCT, frozen in isopentane cooled with liquid nitrogen for histological analysis.
Mouse muscle samples were dissected and cryopreserved in OCT frozen in liquid nitrogen cooled isopentane. Samples were then sectioned at 10 μm on a cryostat and post-fixed with 4% Paraformaldehyde (PFA) for 15min at room temperature. Muscle frozen sections (10 μm) were stained by helaun/eosin or immune-labeled for laminin (Abcam) and embryonic myosin. Briefly, sections were blocked 1 h in PBS plus 4% BS(a), 2% goat serum, 0.01% Triton X-100. Sections were then incubated overnight with primary antibodies. After washes in PBS, sections were incubated 1 h with secondary antibodies anti-Ig2b AF 488 (Life Technology). Slides were finally mounted in ProLong Gold antifade Reagent (Molecular probes by Life Technology) with DAPI. Images were captured using a digital camera (Nanozoomer, Hamamatsu) attached to a motorized fluorescence microscope or using Olympus VS120 Virtual Microscopy Slide Scanning System. The area covered by eMHC-positive fibers and degenerated area was determined manually across the entire sections using the VS-ASW FL software measurement tools. The size of myofibers with central nuclei was calculated from laminin/DAPI staining on all fibers of the section and area determination were performed across the entire sections, using an automated image processing algorithm developed internally using the MetaXpress software (Molecular Devices).

Test [6] relates to aged (24-month-old) C57BL/6 mice. Nature of the test: Grid hang test (forearm grip strength). In kind it is in vivo. Particulars: after 64 days of treatment, vs vehicle. As for the experimental part:
Four 20-gallon plastic buckets were used to suspend a three-by-three-foot metal grid suspended approximately three feet from the ground. The ground just below the grid was padded with soft material. The metal grid was placed on its side so that it was perpendicular to the buckets' surface. […] Once the grid was completely parallel with the horizontal plane (i.e. the floor), the timer was started. The timer was stopped when the mouse fell onto the padded floor and the time to fall was recorded and graphed.
To determine whether increased wheel activity was accompanied by an increase in muscle strength, near the end of the frailty study the mice were subjected to a grid hang test, which measures forearm grip strength. […] Average latency to fall increased in the BGE-105-treated mice (p=0.04, Mann-Whitney U test) (FIGS. 3B and 3C). Thus, the increase in running activity observed in BGE-105-treated mice were accompanied by improved forearm grip strength.

Turning to `COc1cccc(OC)c1-n1c(NS(=O)(=O)[C@@H](C)[C@H](C)c2ncc(C)cn2)nnc1-c1cncc(C)c1` [BGE-105, (2S,3R)—N-(4-(2,6-dimethoxyphenyl)-5-(5-methyl-3-pyridinyl)-4H-1,2,4-triazol-3-yl)-3-(5-methyl-2-pyrimidinyl)-2-butanesulfonamide], the “expression of muscle cell differentiation markers Pax7 and MyoD” value in test [1] (young donor cells) is “increased the expression”. Besides, the MyoD expression entry in test [1] (younger cells, 5 nM) is recorded as “very significant increase”. For the same molecule, in test [1] (younger cells, 5 and 50 nM), the Myf5 expression result is listed as “equal to apelin treatment” and the Pax7 expression result is “recapitulated the levels of apelin”. For the same molecule, the “MyoG expression (FIG. 8F)” value in test [1] (younger cells, any amount of BGE-105, relative to control) is on record as “no change”. For the same molecule, the apelin receptor levels entry in test [2] is “noticeable but non-significant drop”. Besides, the cardiovascular response entry in test [3] is “induces a cardiovascular response”. Further, the “pAMPK levels in the heart” value in test [4] is reported as “increased levels; also recorded: significantly higher”. Also, the “amount of centrally nucleated myofibers (CNM)” value in test [5] (18-months old mice after cardiotoxin, apelin 0.5 μmol/kg/day, BGE-105 200 mg/kg/day) is “significant increase”. The “central nuclei in regenerating fibers” value in test [5] (aged mice after cardiotoxin, BGE-105 50 or 200 mg/kg/day) is on record as “promoted accumulation of central nuclei; also recorded: dose-dependent increase in central nucleated fibers”. For the same molecule, the “cross-sectional area of the tibialis” value in test [5] (aged mice, 3 and 7 days post cardiotoxin, apelin, BGE-105 50 and 200 mg/kg/d) was “positive effect; also recorded: significant increase in cross sectional area”. Moreover, in test [6], the “latency to fall in grid hang test (grip strength)” value is given as “statistically significant improvement in grip strength; also recorded: increase in the latency to fall; also recorded: increased”.
